# Measurements from patent US10344017B2, “Pyrrolcarboxamide derivatives for the inhibition of ERK5” (CANCER RESEARCH TECHNOLOGY LIMITED, priority 2014, dated 2019).
# Molecular target: T1, ERK5 (Homo sapiens, UniProt Q13164)
# T1 construct: made in house
# Assay: ERK5 IMAP assay (fluorescence polarisation)
# Assay type: biochemical
# Conditions: average (e.g. geometric mean) where more than one data point; read-out: ERK5 IC50
# Procedure: The assay buffer was prepared using 0.01% Tween®-20 5× stock, supplied as part of IMAP™ FP Progressive Binding System Kit (Molecular Devices R7436) and diluted to 1× using miliQ H2O. 1 μL of a 1M DTT stock was added for every 1 mL of 1× assay buffer to give a final concentration of 1 mM DTT.
# ERK5 was expressed and purified at CRT-DL by Leon Pang and Sue Young. Aliquots were stored at −80° C. The ERK5 working solution was used at a […] final dilution in assay buffer. […] For 1 plate, […] of ERK5 stock was added to 2262 μL of 1× assay buffer.
# To prepare the IMAP™ binding solution for one plate 20.5 μL of IMAP™ binding reagent stock, 1476 μL of 1× binding buffer A (60%), and 984 μL of binding buffer B (40%) (IMAP™ FP Progressive screening express kit (Molecular Devices R8127) was added to 9819.5 μL of milliQ H2O.
# 1 μL of inhibitor (in 60:40 H2O/DMSO) or 60:40 H2O/DMSO (for controls and blanks) were dry-spotted into the relevant wells of a 384-well assay plate using the MATRIX PlateMate® Plus. 5 μL of ERK5 working solution was added to test and control wells, and 5 μL of 1× assay buffer added to blanks; 4 μL of ATP/substrate working solution was added to all wells using a Matrix multichannel pipette. The plate was sealed using DMSO resistant clear seal and incubated for 2 h at 37° C. 1 μL of the kinase reaction mixture from the first plate was dry spotted into a second 384-well assay plate using the MATRIX PlateMate® Plus. 9 μL of assay buffer was added, followed by 30 μL of IMAP™ binding solution using a multichannel pipette. The plate was incubated at RT in darkness for 2 h. The assay plate was then read on an Analyst HT plate reader (Molecular Devices) using the settings described below: […]
# T1 sequence (Q13164 whole entry): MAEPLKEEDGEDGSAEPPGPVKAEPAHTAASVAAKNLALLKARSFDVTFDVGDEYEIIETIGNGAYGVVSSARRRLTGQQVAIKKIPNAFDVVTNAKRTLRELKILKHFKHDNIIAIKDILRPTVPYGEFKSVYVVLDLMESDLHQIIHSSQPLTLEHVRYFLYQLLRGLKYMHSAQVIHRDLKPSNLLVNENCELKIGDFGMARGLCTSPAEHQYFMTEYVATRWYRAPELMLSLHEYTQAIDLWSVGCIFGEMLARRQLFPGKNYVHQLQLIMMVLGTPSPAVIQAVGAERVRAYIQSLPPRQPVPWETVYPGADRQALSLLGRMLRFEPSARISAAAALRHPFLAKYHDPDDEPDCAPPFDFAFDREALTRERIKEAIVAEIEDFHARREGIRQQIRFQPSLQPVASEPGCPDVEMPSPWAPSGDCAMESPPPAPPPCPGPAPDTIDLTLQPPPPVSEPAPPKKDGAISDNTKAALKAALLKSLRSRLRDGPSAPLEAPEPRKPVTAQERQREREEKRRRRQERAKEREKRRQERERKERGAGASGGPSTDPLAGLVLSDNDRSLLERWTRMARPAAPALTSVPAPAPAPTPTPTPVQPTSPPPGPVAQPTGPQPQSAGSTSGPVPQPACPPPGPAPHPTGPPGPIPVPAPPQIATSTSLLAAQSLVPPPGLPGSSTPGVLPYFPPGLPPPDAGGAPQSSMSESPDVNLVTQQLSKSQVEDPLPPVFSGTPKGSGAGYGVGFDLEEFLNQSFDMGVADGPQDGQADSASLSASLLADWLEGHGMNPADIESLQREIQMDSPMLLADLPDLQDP
row,Structure (SMILES),IC50
1,"CCCc1ccncc1NC(=O)c1cc(C(=O)c2c(Cl)ccc(Cl)c2F)c[nH]1 [Example 95, 4-(3,6-Dichloro-2-fluorobenzoyl)-N-(4-propylpyridin-3-yl)-1H-pyrrole-2-carboxamide]",2820 nM
2,"O=C(NC1CCNCC1)c1cc(C(=O)c2cc(F)ccc2F)c[nH]1 [Example 226, 4-(2,5-Difluorobenzoyl)-N-(piperidin-4-yl)-1H-pyrrole-2-carboxamide]",8560 nM
3,"O=C(Nc1cnccc1N1CCCC1)c1cc(C(=O)c2c(Cl)ccc(Cl)c2F)c[nH]1 [Example 98, 4-(3,6-Dichloro-2-fluorobenzoyl)-N-(4-(pyrrolidin-1-yl)pyridin-3-yl)-1H-pyrrole-2-carboxamide]",8710 nM
4,"O=C(NC1CCOCC1)c1cc(C(=O)c2c(F)cccc2Br)c[nH]1 [Example 198, 4-(2-Bromo-6-fluorobenzoyl)-N-(tetrahydro-2H-pyran-4-yl)-1H-pyrrole-2-carboxamide]",1220 nM
5,"CN1CCC(NC(=O)c2cc(C(=O)c3c(Cl)ccc(Cl)c3F)c[nH]2)CC1 [Example 174, 4-(3,6-dichloro-2-fluorobenzoyl)-N-(1-methylpiperidin-4-yl)-1H-pyrrole-2-carboxamide]",115 nM
6,"CCOc1ncccc1NC(=O)c1cc(C(=O)c2c(Cl)ccc(Cl)c2F)c[nH]1 [Example 85, 4-(3,6-Dichloro-2-fluorobenzoyl)-N-(2-ethoxypyridin-3-yl)-1H-pyrrole-2-carboxamide]",6050 nM
7,"C#Cc1cccc(F)c1C(=O)c1c[nH]c(C(=O)NC2CCN(C)CC2)c1 [Example 205, 4-(2-Ethynyl-6-fluorobenzoyl)-N-(1-methylpiperidin-4-yl)-1H-pyrrole-2-carboxamide]",2840 nM
8,"CS(=O)(=O)CCNc1ccc(NC(=O)c2cc(C(=O)c3c(Cl)ccc(Cl)c3F)c[nH]2)cn1 [Example 263, 4-(3,6-Dichloro-2-fluorobenzoyl)-N-(6-((2-(methylsulfonyl)ethyl)amino)pyridin-3-yl)-1H-pyrrole-2-carboxamide]",211 nM
9,"O=C(Nc1ccc(OC2COC2)nc1)c1cc(C(=O)c2c(Cl)ccc(Cl)c2F)c[nH]1 [Example 279, 4-(3,6-Dichloro-2-fluorobenzoyl)-N-(6-(oxetan-3-yloxy)pyridin-3-yl)-1H-pyrrole-2-carboxamide]",874 nM
10,"CN1CCC(NC(=O)c2cc(C(=O)c3cc(Cl)ccc3F)c[nH]2)CC1 [Example 231, 4-(5-Chloro-2-fluorobenzoyl)-N-(1-methylpiperidin-4-yl)-1H-pyrrole-2-carboxamide]",1940 nM
11,"COc1ccc(Cl)c(C(=O)c2c[nH]c(C(=O)Nc3ccc(CN4CCOCC4)nc3)c2)c1F [Example 116, 4-(6-Chloro-2-fluoro-3-methoxybenzoyl)-N-(6-(morpholinomethyl)pyridin-3-yl)-1H-pyrrole-2-carboxamide]",21.8 nM
12,"COc1ccc(Cl)c(C(=O)c2c[nH]c(C(=O)Nc3cnn(Cc4cccnc4)c3)c2)c1F [Example 66, 4-(6-Chloro-2-fluoro-3-methoxybenzoyl)-N-(1-(pyridin-3-ylmethyl)-1H-pyrazol-4-yl)-1H-pyrrole-2-carboxamide]",16.6 nM
13,"Cc1ccc(F)c(C(=O)c2c[nH]c(C(=O)Nc3cncnc3)c2)c1 [Example 233, 4-(2-Fluoro-5-methylbenzoyl)-N-(pyrimidin-5-yl)-1H-pyrrole-2-carboxamide]",5210 nM
14,"Cc1ccc(F)c(C(=O)c2c[nH]c(C(=O)NC3CCN(C)CC3)c2)c1F [Example 220, 4-(2,6-Difluoro-3-methylbenzoyl)-N-(1-methylpiperidin-4-yl)-1H-pyrrole-2-carboxamide]",399 nM
15,"O=C(Nc1ccnc(Cl)n1)c1cc(C(=O)c2c(F)cccc2Br)c[nH]1 [Example 141, 4-(2-Bromo-6-fluorobenzoyl)-N-(2-chloropyrimidin-4-yl)-1H-pyrrole-2-carboxamide]",7760 nM
16,"COCCn1cc(NC(=O)c2cc(C(=O)c3c(Cl)ccc(OC)c3F)c[nH]2)cn1 [Example 63, 4-(6-Chloro-2-fluoro-3-methoxybenzoyl)-N-(1-(2-methoxyethyl)-1H-pyrazol-4-yl)-1H-pyrrole-2-carboxamide]",104 nM
17,"O=C(Nc1ccnc(Cl)n1)c1cc(C(=O)c2c(F)cccc2Cl)c[nH]1 [Example 140, 4-(2-Chloro-6-fluorobenzoyl)-N-(2-chloropyrimidin-4-yl)-1H-pyrrole-2-carboxamide]",4350 nM
18,"CN1CCN(c2cc(NC(=O)c3cc(C(=O)c4c(F)cccc4Cl)c[nH]3)ccn2)CC1 [Example 36, 4-(2-Chloro-6-fluorobenzoyl)-N-(2-(4-methylpiperazin-1-yl)pyridin-4-yl)-1H-pyrrole-2-carboxamide]",137 nM
19,"O=C(Nc1cnc(N2CCNCC2)nc1)c1cc(C(=O)c2c(F)cccc2Cl)c[nH]1 [Example 26, 4-(2-Chloro-6-fluorobenzoyl)-N-(2-(piperazin-1-yl)pyrimidin-5-yl)-1H-pyrrole-2-carboxamide]",88.8 nM
20,"CCOc1ccncc1NC(=O)c1cc(C(=O)c2c(Cl)ccc(Cl)c2F)c[nH]1 [Example 97, 4-(3,6-Dichloro-2-fluorobenzoyl)-N-(4-ethoxypyridin-3-yl)-1H-pyrrole-2-carboxamide]",1380 nM
21,"Cc1ccc(Cl)c(C(=O)c2c[nH]c(C(=O)NC3CCN(C)CC3)c2)c1F [Example 180, 4-(6-Chloro-2-fluoro-3-methylbenzoyl)-N-(1-methylpiperidin-4-yl)-1H-pyrrole-2-carboxamide]",490 nM
22,"COc1ncccc1NC(=O)c1cc(C(=O)c2c(Cl)ccc(Cl)c2F)c[nH]1 [Example 84, 4-(3,6-Dichloro-2-fluorobenzoyl)-N-(2-methoxypyridin-3-yl)-1H-pyrrole-2-carboxamide]",1180 nM
23,"Cn1cc(NC(=O)c2cc(C(=O)c3c(Cl)ccc(OC4CCOCC4)c3F)c[nH]2)cn1 [Example 268, 4-(6-Chloro-2-fluoro-3-((tetrahydro-2H-pyran-4-yl)oxy)benzoyl)-N-(1-methyl-1H-pyrazol-4-yl)-1H-pyrrole-2-carboxamide]",2800 nM

# Results, then the compound that gave them:
row,IC50,Structure (SMILES)
1,20.2 nM,"O=C(Nc1cnn(Cc2cccnc2)c1)c1cc(C(=O)c2c(Cl)ccc(Cl)c2F)c[nH]1 [Example 49, 4-(3,6-Dichloro-2-fluorobenzoyl)-N-(1-(pyridin-3-ylmethyl)-1H-pyrazol-4-yl)-1H-pyrrole-2-carboxamide]"
2,73 nM,"O=C(Nc1cccnc1)c1cc(C(=O)c2c(Cl)ccc(OC3COC3)c2F)c[nH]1 [Example 272, 4-(6-Chloro-2-fluoro-3-(oxetan-3-yloxy)beruoyl)-N-(pyridin-3-yl)-1H-pyrrole-2-carboxamide]"
3,400 nM,"O=C(Nc1cccnc1)c1cc(C(=O)c2c(F)ccc(F)c2F)c[nH]1 [Example 206, N-(Pyridin-3-yl)-4-(2,3,6-trifluorobenzoyl)-1H-pyrrole-2-carboxamide]"
4,960 nM,"Cc1ncccc1NC(=O)c1cc(C(=O)c2c(F)cccc2Cl)c[nH]1 [Example 148, 4-(2-Chloro-6-fluorobenzoyl)-N-(2-methylpyridin-3-yl)-1H-pyrrole-2-carboxamide]"
5,1330 nM,CCc1ccc(F)c(C(=O)c2c[nH]c(C(=O)Nc3cccnc3)c2)c1F [Example 162]
6,263 nM,"Cc1ccc(Cl)c(C(=O)c2c[nH]c(C(=O)Nc3cncnc3)c2)c1F [Example 179, 4-(6-Chloro-2-fluoro-3-methylbenzoyl)-N-(pyrimidin-5-yl)-1H-pyrrole-2-carboxamide]"
7,1190 nM,"O=C(Nc1cccnc1)c1cc(C(=O)c2c(Cl)ccc(O)c2F)c[nH]1 [Example 254, 4-(6-Chloro-2-fluoro-3-hydroxybenzoyl)-N-(pyridin-3-yl)-1H-pyrrole-2-carboxamide]"
8,291 nM,"O=C(Nc1cccnc1)c1cc(C(=O)c2c(F)ccc(Cl)c2F)c[nH]1 [Example 210, 4-(3-Chloro-2,6-difluorobenzoyl)-N-(pyridin-3-yl)-1H-pyrrole-2-carboxamide]"
9,255 nM,"COc1ccc(F)c(C(=O)c2c[nH]c(C(=O)Nc3cccnc3)c2)c1Cl [Example 73, 4-(2-chloro-6-fluoro-3-methoxybenzoyl)-N-(pyridin-3-yl)-1H-pyrrole-2-carboxamide]"
10,713 nM,"O=C(Nc1cccnc1)c1cc(C(=O)c2c(Cl)ccc(F)c2F)c[nH]1 [Example 221, 4-(6-Chloro-2,3-difluorobenzoyl)-N-(pyridin-3-yl)-1H-pyrrole-2-carboxamide]"
11,1070 nM,"O=C(Nc1cncnc1)c1cc(C(=O)c2c(F)ccc(F)c2F)c[nH]1 [Example 207, N-(Pyrimidin-5-yl)-4-(2,3,6-trifluorobenzoyl)-1H-pyrrole-2-carboxamide]"
12,4050 nM,"Cc1ccc(F)c(C(=O)c2c[nH]c(C(=O)Nc3cccnc3)c2)c1 [Example 232, 4-(2-Fluoro-5-methylbenzoyl)-N-(pyridin-3-yl)-1H-pyrrole-2-carboxamide]"
13,515 nM,"Cc1ccc(Cl)c(C(=O)c2c[nH]c(C(=O)Nc3cccnc3)c2)c1F [Example 178, 4-(6-Chloro-2-fluoro-3-methylbenzoyl)-N-(pyridin-3-yl)-1H-pyrrole-2-carboxamide]"
